Test results: ChEMBL document CHEMBL3046651, “Cytotoxicity and QSAR study of (thio)ureas derived from phenylalkylamines and pyridylalkylamines” (Med Chem Res, 2013)

How the values were obtained:
Assay type in all cases: functional, cell-based
[1] = tested on: HepG2; experiment: Cytotoxicity against Homo sapiens (human) HepG2 cells assessed as inhibition of cell growth after 3 days by MTT assay; conditions: HepG2, 72 h
[2] = Cytotoxicity against Homo sapiens (human) HuCCa1 cells assessed as inhibition of cell growth after 3 days by crystal violet staining; conditions: HuCC-A1, 72 h
[3] = tested on: A549; experiment: Cytotoxicity against Homo sapiens (human) A549 cells assessed as inhibition of cell growth after 3 days by MTT assay; conditions: A549, 72 h
[4] = tested on: MOLT-3; experiment: Cytotoxicity against Homo sapiens (human) MOLT3 cells assessed as inhibition of cell growth after 3 days by crystal violet staining; conditions: MOLT-3, 72 h

Compound | IC50 [1] | IC50 [2] | IC50 [3] | IC50 [4]
O=[N+]([O-])c1ccc(NC(S)=NCCc2ccccc2)cc1 | 25.4 µM | 19.1 µM | 80.3 µM | 12.5 µM
O=C(NCCc1ccccc1)Nc1ccc(Cl)cc1 | 37.6 µM | > 182 µM | > 182 µM | > 182 µM
S=C(NCc1ccccn1)Nc1ccc(Cl)cc1 | > 180 µM | > 180 µM | > 180 µM | 119 µM
S=C(NCCc1ccccc1)Nc1ccc(Cl)cc1 | 44.7 µM | 84.2 µM | 75.7 µM | 25.1 µM
S=C(NCCc1ccccn1)Nc1ccc(Cl)cc1 | > 171 µM | > 171 µM | > 171 µM | 120 µM
O=C(NCc1ccccn1)Nc1ccc(Cl)cc1 | > 191 µM | > 191 µM | > 191 µM | 186 µM
COc1ccc(CCNC(=S)Nc2ccc([N+](=O)[O-])cc2)cc1OC | 42.4 µM | > 138 µM | 65 µM | 21.7 µM
COc1ccc(CCNC(=S)Nc2ccc(Cl)cc2)cc1OC | 60.8 µM | 139 µM | 129 µM | 38.9 µM
COc1ccc(CCNC(=O)Nc2ccc(Cl)cc2)cc1OC | 52.8 µM | > 149 µM | > 149 µM | 50.7 µM
O=[N+]([O-])c1ccc(NC(=S)NCCc2ccccn2)cc1 | 152 µM | > 165 µM | > 165 µM | 78.7 µM
O=C(NCCc1ccccn1)Nc1ccc(Cl)cc1 | 22.7 µM | > 181 µM | > 181 µM | 66.9 µM
O=[N+]([O-])c1ccc(NC(=S)NCc2ccccn2)cc1 | 34.7 µM | > 173 µM | > 173 µM | 54.1 µM
O=[N+]([O-])c1ccc(NC(=S)NCc2cccc(CNC(=S)Nc3ccc([N+](=O)[O-])cc3)c2)cc1 | 7.51 µM | 34.2 µM | 88.6 µM | 3.36 µM
S=C(NCc1cccc(CNC(=S)Nc2ccc(Cl)cc2)c1)Nc1ccc(Cl)cc1 | 7.63 µM | 52.6 µM | > 105 µM | 1.62 µM
COc1cccc2c1C(=O)c1c(O)c3c(c(O)c1C2=O)C[C@@](O)(C(=O)CO)C[C@@H]3O[C@H]1C[C@H](N)[C@H](O)[C@H](C)O1 [DOXORUBICIN] | 0.42 µM | 0.64 µM | 0.7 µM | –
